ChEMBL document CHEMBL1145677, “In Vitro Action of ent -Manoyl Oxides against Leishmania donovani” (1997)

Columns and labels:
Format in all cases: functional
[1] = system: Leishmania donovani; experiment: Antileishmanial activity against Leishmania donovani LCR-L133 promastigotes at 100 […] after 48 hrs relative to control
[2] = system: Leishmania donovani; experiment: Antileishmanial activity against Leishmania donovani LCR-L133 amastigotes at 100 ug/ml after 24 hrs relative to control
[3] = system: Leishmania donovani; experiment: Antileishmanial activity against Leishmania donovani LCR-L133 amastigotes at 100 ug/ml after 72 hrs relative to control
[4] = system: Leishmania donovani; experiment: Antileishmanial activity against Leishmania donovani LCR-L133 promastigotes at 1 […] after 24 hrs relative to control
[5] = system: Leishmania donovani; experiment: Antileishmanial activity against Leishmania donovani LCR-L133 amastigotes at 1 ug/ml after 48 hrs relative to control
[6] = system: Leishmania donovani; experiment: Antileishmanial activity against Leishmania donovani LCR-L133 amastigotes at 1 ug/ml after 24 hrs relative to control
[7] = system: Leishmania donovani; experiment: Antileishmanial activity against Leishmania donovani LCR-L133 amastigotes at 1 ug/ml after 72 hrs relative to control
[8] = system: Leishmania donovani; experiment: Antileishmanial activity against Leishmania donovani LCR-L133 amastigotes at 10 ug/ml after 48 hrs relative to control
[9] = system: Leishmania donovani; experiment: Antileishmanial activity against Leishmania donovani LCR-L133 amastigotes at 10 ug/ml after 72 hrs relative to control
[10] = system: Leishmania donovani; experiment: Antileishmanial activity against Leishmania donovani LCR-L133 promastigotes at 100 […] after 24 hrs relative to control
[11] = system: Leishmania donovani; experiment: Antileishmanial activity against Leishmania donovani LCR-L133 promastigotes at 10 […] after 24 hrs relative to control
[12] = system: Leishmania donovani; experiment: Antileishmanial activity against Leishmania donovani LCR-L133 promastigotes at 10 […] after 48 hrs relative to control
[13] = system: Leishmania donovani; experiment: Antileishmanial activity against Leishmania donovani LCR-L133 promastigotes at 1 […] after 48 hrs relative to control
[14] = system: Leishmania donovani; experiment: Antileishmanial activity against Leishmania donovani LCR-L133 amastigotes at 10 ug/ml after 24 hrs relative to control
[15] = system: Leishmania donovani; experiment: Antileishmanial activity against Leishmania donovani LCR-L133 promastigotes at 100 […] after 72 hrs relative to control
[16] = system: Leishmania donovani; experiment: Antileishmanial activity against Leishmania donovani LCR-L133 promastigotes at 10 […] after 72 hrs relative to control
[17] = system: Leishmania donovani; experiment: Antileishmanial activity against Leishmania donovani LCR-L133 promastigotes at 1 […] after 72 hrs relative to control
[18] = system: Leishmania donovani; experiment: Antileishmanial activity against Leishmania donovani LCR-L133 amastigotes at 100 ug/ml after 48 hrs relative to control

Compound	Activity [1] [%]	Activity [2] [%]	Activity [3] [%]	Activity [4] [%]	Activity [5] [%]	Activity [6] [%]	Activity [7] [%]	Activity [8] [%]	Activity [9] [%]	Activity [10] [%]	Activity [11] [%]	Activity [12] [%]	Activity [13] [%]	Activity [14] [%]	Activity [15] [%]	Activity [16] [%]	Activity [17] [%]	Activity [18] [%]
C=C[C@]1(C)O[C@@]2(C)CC[C@@H]3C(C)(C)C(=O)CC[C@@]3(C)[C@@H]2CC1=O	25	22	36	0	0	0	0	7	11	0	0	0	0	0	0	0	0	31
C=C[C@]1(C)O[C@@]2(C)CC[C@@H]3C(C)(C)[C@H](O)CC[C@@]3(C)[C@@H]2C[C@H]1O [VARODIOL]	63	12	33	0	0	0	0	7	12	0	0	0	0	0	0	0	0	29
C=C[C@@]1(C)CC[C@H]2[C@]3(C)CC[C@@H](O)C(C)(C)[C@H]3CC[C@]2(C)O1	70	17	39	0	7	0	0	13	18	27	0	0	0	0	52	0	0	25
C=C[C@]1(C)O[C@@]2(C)C[C@H](O)[C@@H]3C(C)(C)[C@H](O)CC[C@@]3(C)[C@@H]2C[C@@H]1O	0	35	50	0	0	0	0	11	16	0	0	0	0	7	0	0	0	46
C=C[C@]1(C)O[C@@]2(C)C[C@H](O)[C@@H]3C(C)(C)[C@H](O)CC[C@@]3(C)[C@@H]2CC1=O	0	14	19	0	0	0	0	0	0	0	0	0	0	0	0	0	0	15
C=C[C@]1(C)O[C@@]2(C)CC[C@@H]3C(C)(C)[C@@H](OC(C)=O)CC[C@@]3(C)C2=CC1=O	100	32	50	0	0	0	12	21	34	100	0	0	0	12	100	0	0	45
C=C[C@@]1(C)CC[C@H]2[C@]3(C)CC[C@@H](O)C(C)(C)[C@H]3[C@@H](O)C[C@]2(C)O1	52	34	67	0	0	0	14	24	33	0	0	0	0	10	0	0	0	51
C=C[C@]1(C)O[C@@]2(C)CC[C@@H]3C(C)(C)[C@H](O)CC[C@@]3(C)[C@@H]2C[C@@H]1O	31	15	35	0	0	0	0	6	11	0	0	0	0	0	0	0	0	31
C=C[C@@]1(CO)CC[C@H]2[C@]3(C)CCC[C@](C)(C(=O)OC)[C@H]3CC[C@]2(C)O1	62	47	67	0	12	0	13	26	35	0	0	0	0	17	79	0	0	58
C=C[C@@]1(C)CC[C@H]2[C@]3(C)CCC(=O)C(C)(C)[C@H]3CC[C@]2(C)O1	86	20	56	0	10	0	10	17	25	51	0	0	0	7	80	0	0	48
MEGLUMINE ANTIMONATE	74			4						70	28	40	20		76	42	39	
C=C[C@]1(CO)CC[C@H]2[C@]3(C)CCC(=O)[C@](C)(C(=O)OC)[C@H]3CC[C@]2(C)O1	22	9	19	0	0	0	0	0	0	0	0	0	0	0	34	0	0	14
